# According to patent US20220218826A1, “COMPOSITION FOR TOPICAL USE FOR PHOTODYNAMIC THERAPY” (UNIVERSIDAD DE LA FRONTERA, priority 2019, published 2022):
# Columns and labels:
# [1] = tested on: PDT-resistant HSC-1 cells; experiment: Detection of protoporphyrin IX (PpIX) by flow cytometry; type: cell-based; conditions: 4 hours in the dark
# Method: For this, PDT-resistant cells, obtained as stated in example 1, were incubated with 150 mg/g MAL, plus EGCG (0.1 mg/g, 0.2 mg/g, 0.4 mg/g) or EDTA (1 mg/g, 2 mg/g, 3 mg/g) for 4 hours in the dark. Subsequently, the PpIX content in resistant cells was detected by flow cytometry, since PpIX is a fluorescent compound.
# [2] = tested on: MAL-PDT-resistant HSC-1 cells; experiment: MTT cell viability after MAL-PDT with EGCG and/or EDTA as adjuvants
# Method: The in vitro effect of EGCG and EDTA separately as adjuvants of MAL-PDT was assessed HSC-1 cells derived from squamous skin carcinoma were used. Previously, these cells received PDT cycles, in order to select those that are resistant to PDT. Therefore, the model used corresponds to MAL-PDT-resistant HSC-1 cells.
# The in vitro photodynamic conventional treatment consisted of incubating these cells with MAL 150 mg/g (photosensitiser) for 4 hours in the dark and after radiating them with 630 nm red light, with fluence of 4 J/cm^2. Cell viability was assessed 24 hours later by the MTT assay.
# Subsequently, this protocol was carried out in the same way in these cells, only with the following modification: when adding MAL, different concentrations of EDTA were added (0.5 mg/g, 1 mg/g, 1.5 mg/g, and 2 mg/g) or EGCG (0.2 mg/g, 0.4 mg/g, 0.6 mg/g, 0.8 mg/g). The MAL concentration of 150 mg/g was kept in all tests and experiments with irradiation (light) fluency same to the control at 4 J/cm^2, or without radiation, were carried out.
# [3] = tested on: PDT-resistant HSC-1 cells; experiment: Detection of reactive oxygen species (ROS) with Muse Oxidative Stress Kit; type: cell-based; conditions: all assessed EGCG concentrations (0.1, 0.2, 0.4 mg/g) + MAL 150 mg/g, 4 hours, red light irradiation
# Method: Given that in PDT, it is finally the reactive oxygen substances that cause cell damage and death, the production of these compounds was directly assessed. The same model as in example 3 was used, at the same EGCG concentrations stated in FIG. 3A, in order to assess the production of ROS generated in MAL-PDT. Following the previous methodology, after incubating the cells for 4 hours, these received red light irradiation. For ROS detection, these were incubated with a probe (Muse™ Oxidative Stress Kit|MCH100111—Merck Millipore) for 30 minutes and was assessed in a cell analyzer.
smiles,measurement,setting,value
"O=C(O)CN(CCN(CC(=O)O)CC(=O)O)CC(=O)O [EDTA, ethylenediaminetetraacetic acid]",population that contained PpIX,"[1]; MAL 150 mg/g plus EDTA (1, 2, 3 mg/g)",≤ 13%
same,effect of EDTA in MAL-PDT on viability,"[2]; EDTA, only at 2 mg/g, + MAL 150 mg/g, light 4 J/cm^2",significant
"O=C(O[C@@H]1Cc2c(O)cc(O)cc2O[C@@H]1c1cc(O)c(O)c(O)c1)c1cc(O)c(O)c(O)c1 [EGCG, epigallocatechin galate]",population that contained PpIX,"[1]; MAL 150 mg/g plus EGCG (0.1, 0.2, 0.4 mg/g)",≤ 18%
same,survival rate,"[2]; EGCG from 0.4 mg/g + MAL 150 mg/g, light 4 J/cm^2",0
same,ROS concentration relative to the control,[3],doubled or even tripled
"COC(=O)CCC(=O)CN [MAL, methyl aminolevulinate]",population that contained PpIX,[1]; MAL 150 mg/g alone,5%
same,HSC-1 resistant cells survived PDT,"[2]; control MAL-PDT: MAL 150 mg/g, 4 hours in the dark, 630 nm red light, 4 J/cm^2, MTT 24 hours later",~50%
